These results are taken from ChEMBL document CHEMBL1126456, “Vinylogous hydroxamic acids: 5-lipoxygenase inhibitors” (Bioorg Med Chem Lett, 1992).

The first test deals with T1, Cyclooxygenase (Bos taurus, UniProt O62664+O62698).
T1 sequence (O62664 whole entry): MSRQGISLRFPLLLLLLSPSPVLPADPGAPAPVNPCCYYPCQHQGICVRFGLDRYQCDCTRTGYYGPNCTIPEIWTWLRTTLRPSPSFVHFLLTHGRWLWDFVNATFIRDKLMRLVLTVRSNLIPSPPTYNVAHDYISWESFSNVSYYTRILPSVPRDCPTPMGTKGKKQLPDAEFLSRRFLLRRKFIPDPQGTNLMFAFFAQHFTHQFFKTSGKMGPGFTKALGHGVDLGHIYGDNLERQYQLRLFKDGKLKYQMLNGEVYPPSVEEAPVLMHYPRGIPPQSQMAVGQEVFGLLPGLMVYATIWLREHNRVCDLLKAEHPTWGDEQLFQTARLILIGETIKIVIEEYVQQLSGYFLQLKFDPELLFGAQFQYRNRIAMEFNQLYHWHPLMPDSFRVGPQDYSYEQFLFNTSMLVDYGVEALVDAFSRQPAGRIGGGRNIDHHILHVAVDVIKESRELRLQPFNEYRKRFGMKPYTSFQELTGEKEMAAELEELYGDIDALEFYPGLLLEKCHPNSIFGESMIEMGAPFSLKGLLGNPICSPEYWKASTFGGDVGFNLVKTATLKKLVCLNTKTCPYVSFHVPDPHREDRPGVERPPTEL
T1 sequence (O62698 whole entry): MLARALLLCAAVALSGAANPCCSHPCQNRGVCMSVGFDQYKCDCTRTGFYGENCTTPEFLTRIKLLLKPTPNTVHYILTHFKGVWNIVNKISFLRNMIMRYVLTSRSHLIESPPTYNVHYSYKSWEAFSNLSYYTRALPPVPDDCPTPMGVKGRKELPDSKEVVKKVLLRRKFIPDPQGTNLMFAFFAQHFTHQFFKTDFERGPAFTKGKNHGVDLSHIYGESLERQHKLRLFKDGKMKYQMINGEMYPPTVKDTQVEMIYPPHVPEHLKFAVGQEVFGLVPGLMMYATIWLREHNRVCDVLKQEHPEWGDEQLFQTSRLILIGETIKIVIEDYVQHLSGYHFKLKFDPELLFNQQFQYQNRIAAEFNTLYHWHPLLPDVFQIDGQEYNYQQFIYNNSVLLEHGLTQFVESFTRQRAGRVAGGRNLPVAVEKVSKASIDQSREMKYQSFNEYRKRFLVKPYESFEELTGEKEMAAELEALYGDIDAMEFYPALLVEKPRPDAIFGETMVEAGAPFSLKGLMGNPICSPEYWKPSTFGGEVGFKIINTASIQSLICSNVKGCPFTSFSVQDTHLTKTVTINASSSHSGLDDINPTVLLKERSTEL
Briefly: Compound was evaluated for inhibition against cyclooxygenase of bovine seminal vesicles. It is filed as protein assay.
The IC50 is the point on the concentration scale where inhibition reaches its midpoint. `O=C(/C=C\N(O)Cc1ccccc1)c1ccc(F)cc1` yielded an IC50 greater than 750 µM.
`CC(=O)ON(/C=C\C(=O)c1ccc(F)cc1)Cc1ccccc1` showed an IC50 greater than 750 µM.
Same read-out and setting: as for `CON(/C=C\C(=O)c1ccc(F)cc1)Cc1ccccc1`, the figure is greater than 750 µM; as for `O=C(/C=C\N(O)C1CCCCC1)c1ccc(F)cc1`, greater than 750 µM; as for `O=C1CCN(c2ccccc2)N1` [PHENIDONE], 6.9 µM.
Still for that read-out and setting: as for `CC(c1cc2ccccc2s1)N(O)C(N)=O` (configuration not stated) [ZILEUTON], the figure is greater than 750 µM.

The target in a further test is T2, Polyunsaturated fatty acid 5-lipoxygenase (Rattus norvegicus, UniProt P12527).
T2 sequence (P12527 whole entry): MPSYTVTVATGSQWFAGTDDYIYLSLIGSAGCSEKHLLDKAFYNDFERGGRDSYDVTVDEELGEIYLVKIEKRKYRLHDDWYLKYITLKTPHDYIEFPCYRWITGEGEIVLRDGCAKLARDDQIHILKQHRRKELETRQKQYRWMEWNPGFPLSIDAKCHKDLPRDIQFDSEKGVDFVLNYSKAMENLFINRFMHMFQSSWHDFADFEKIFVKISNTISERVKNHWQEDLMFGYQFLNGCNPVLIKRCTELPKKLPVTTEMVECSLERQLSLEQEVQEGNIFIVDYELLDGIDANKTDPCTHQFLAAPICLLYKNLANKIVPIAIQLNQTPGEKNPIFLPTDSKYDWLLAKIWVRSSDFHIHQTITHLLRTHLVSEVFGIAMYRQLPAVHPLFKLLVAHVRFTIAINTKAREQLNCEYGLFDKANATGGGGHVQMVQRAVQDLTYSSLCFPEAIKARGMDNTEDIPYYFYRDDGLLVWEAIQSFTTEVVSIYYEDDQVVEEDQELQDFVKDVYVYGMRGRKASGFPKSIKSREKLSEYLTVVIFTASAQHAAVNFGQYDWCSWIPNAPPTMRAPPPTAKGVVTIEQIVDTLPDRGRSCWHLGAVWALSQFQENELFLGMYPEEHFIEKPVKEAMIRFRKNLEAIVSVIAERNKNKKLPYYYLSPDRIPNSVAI
Briefly: Inhibition of 5-Lipoxygenase of rat basophilic leukemia cells. It is filed as cell-based, RBL-1.
Regarding `C/C(=C/N(O)Cc1ccccc1)C(=O)c1ccc(F)cc1`, the midpoint of inhibition, the IC50, lay at 0.3 µM.
